# Reference: patent US12403115B2, “Asymmetric synthesis and uses of compounds in disease treatments” (Zhejiang Jiachi Development Pharmaceuticals LTD., priority 2017, dated 2025)
# “Also recorded” adds a separate entry of the source.
# How the values were obtained:
# mice bone = assay: Anastrozole-induced osteoporosis in mice by micro-CT (BMD, BV/TV, Tb.N); assay type: in vivo; conditions: for inhibition of anastrozole-induced osteoporosis (micro-CT): food containing drug plus equal amount of anastrozole, 6 months
# Text: (§1) Aromatase inhibitors were administrated to ER positive breast in post-menopausal women. […] It was administrated to ER positive breast cancer in post menopausal women. […] Vulvovagina atrophy usually results in infection of vagina and urinary tract. As an example, we tested whether α-anordrin or β-anordrin eliminates anastrozole-induced uterus and vulvovagina atrophy, and osteoporosis. […] Mice were then sacrificed to harvest vagina, leg and spine bone. The tissues were fixed in paraformaldehyde.
# (§2) Thighbone was fixed in 1×DPBS containing 3% formaldehyde for two weeks. The fixation solution was exchanged after one week. The density of thighbone was measured by Siemens Inveon Micro-CT. Inveon Research Workplace (IRW) was used to analyze the HU2000 value at the following measurement conditions: 80 KVP, […], 1500 ms exposure time; CCD Readout installation: 2048axial, 2048 binning; FOV Transaxial: 19.03 mm, axial: 19.03 mm, pixels size: 9.29 μm.
# OVX female mice [1] = assay: OVX mice: osteoporosis by micro-CT (BMD, BV/TV); assay type: in vivo; conditions: for prevention of osteoporosis (micro-CT): OVX mice, given by food, three months
# Description: (§3) In this Example, studies have been shown the estrogenic effects of α- and β-anordrins on estrogen-modulated metabolic signaling and tissue atrophy. The ovaries of 7 week old mice were surgically excised. One week post surgery, the mice were given isoflavone, α-anordrin or β-anordrin by food. Body mass, blood glucose and food intake were measured monthly. After three months. Mice were sacrificed. The leg and spine bone, liver, uterus and vagina were harvested.
# (§4) The ovaries of 6 week old mice were excised by surgery. 3 days post surgery drugs were administered by gastric tract injection every day or mixed with food.
# as §2
# OVX female mice [2] = assay: OVX mice: blood glucose, blood TG, body mass and food uptake; assay type: in vivo
# Description: as §3
# glucose concentration in medium or total blood from mouse tail was measured using glucose assay kits following manufacturer's instructions (Yicheng, Beijing).
# as §4
# OVX female mice [3] = assay: OVX mice: uterus atrophy (uterine wet mass, H&E sections); assay type: in vivo; conditions: three months
# Description: as §3, §4
# mouse vagina = assay: Anastrozole-induced vagina atrophy in mice (vagina wet mass, H&E sections); assay type: in vivo; conditions: food containing drug plus equal amount of anastrozole, 6 months
# Text: as §1
# (§5) Vagina was cut at the middle site. Both uterine site and vulvovaginal site were embedded in paraffin at the same direction for H&E section preparation. The thickness of vulvovaginal wall was measured from 40× magnification images of Paraffin-embedded H&E mice vagina sections.
# OVX female mice [4] = assay: OVX mice: TG accumulation in liver (H&E sections, liver TG); assay type: in vivo; conditions: given by food
# Description: as §3, §4
# The error was corrected by using internal standard controls.
# OVX female mice [5] = assay: OVX mice: vulvovagina atrophy (vagina wet mass, H&E sections, thickness of vulvovagina wall); assay type: in vivo; conditions: given by food, three months
# Description: as §3, §4, §5
# mice uterus EECs = test system: mice uterus EECs
# Description: (§6) Tamoxifen was the first FDA-approved drug for breast cancer patients with positively expressed ER. […] We further tested whether α-anordrin or β-anordrin eliminates tamoxifen-induced EEC mitosis. […] Mice were then sacrificed to harvest uterus and liver. Uterine and liver tissues were fixed.
# (§7) The tissue of mice was excised by surgery and fixed using 4% paraformaldehyde in 1×DPBS (Beijing Solar Bioscience & Technology co., Ltd). Paraffin section preparation and HE staining was performed by GLP laboratory of BK animal model, Inc.
# EEC height was measured from 20-200× magnification EEC images of Paraffin-embedded H&E mice uterus sections.
# mouse liver = test system: mouse liver
# Description: as §6, §7
# 30-50 mg of mouse liver was excised by surgery and homogenized in 1 ml Cholroform:Methanol (2:1) mixture and extracted using 0.5 ml ddH2O. The organic phase was transferred to new tubes and air dried. The amount of TG was measured using kits following manufacturer's instructions. The error was corrected by using internal standard controls.
# [6] = test system: endometrial epithelial cell (EEC); conditions: earlier finding of the applicants, no method given here (cf. reference 21); cited from earlier work
# [7] = combination with equal amount of anastrozole, micro-CT
# [8] = mice, food containing drug plus tamoxifen, 6 months
compound,measurement,setting,value
"C#C[C@@]1(OC(=O)CC)CC2CCC3C(CC[C@@]4(C)C3CC[C@]4(C#C)OC(=O)CC)[C@@]2(C)C1 (single isomer, unassigned) [α-anordrin, (2α,17α)-diethynyl-(2β, 17β)-diol-dipropionate-A-nor-5α-androstane]",inhibition of anastrozole-induced decrease of BV/TV,mice bone; [7],inhibits anastrozole-induced the ratio decreasing of bone volume (BV)/bone trabecular volume (TV) (BV/TV)
same,inhibition of anastrozole-induced decrease of bone trabecula number (Tb.N),mice bone; [7],inhibits anastrozole-induced the decreasing of bone trabecula number (Tb.N)
same,inhibition of anastrozole-induced loss of bone mean density (BMD),mice bone; [7],inhibits anastrozole-induced the loss of bone mean density (BMD)
same,inhibition of anastrozole-induced osteoporosis (micro-CT),mice bone,inhibited anastrozole-induced osteoporosis; also recorded: inhibits anastrozole-induced osteoporosis in bone
same,prevention of the decrease of bone volume (BV)/bone trabecula volume (TV) ratio (BV/TV),"OVX female mice [1]; OVX female mice, micro-CT",more activity to prevent the ratio decreasing of bone volume (BV)/bone trabecula volume (TV) (BV/TV) compared with β-anordrin
same,prevention of the loss of bone mean density (BMD),"OVX female mice [1]; OVX female mice, micro-CT",more activity to prevent the loss of bone mean density (BMD) compared with β-anordrin
same,prevention of osteoporosis (micro-CT),OVX female mice [1],prevented osteoporosis; also recorded: more actively to prevent the osteoporosis compared with β-anordrin
same,body mass,OVX female mice [2]; after administration of drugs by food,less and dosage dependent activity to decrease
same,blood glucose,OVX female mice [2]; given by food,less and dosage dependent activity to decrease
same,blood triglyceride (TG),OVX female mice [2]; given by food,less and dosage dependent activity to decrease
same,prevention of uterus atrophy,"OVX female mice [3]; OVX female mice, lower dosage, compared with sham group",did not prevent the uterus atrophy
same,atrophy symptom in uterus,"OVX female mice [3]; OVX mice, given by food",less atrophy symptom in uterus compared with those mice treated by β-anordrin and blank groups
same,"inhibition of anastrozole-induced vagina atrophy (vagina wet mass, H&E sections)",mouse vagina,inhibits anastrozole-induced vagina atrophy
same,amount of liver TG (liver H&E section and statistical analysis),OVX female mice [4],decreased the amount of liver TG; also recorded: dosage dependent activity to prevent TG accumulation in liver
same,prevention of vulvovagina atrophy (uterus and vagina wet mass and H&E staining),OVX female mice [5],prevented vulvovagina atrophy; also recorded: dosage dependent activity to prevent the atrophy of vulvovagina
"CC/C(=C(\c1ccccc1)c1ccc(OCCN(C)C)cc1)c1ccccc1 [TAM, tamoxifen, reference compound]",appearance of EECs in H&E staining sections,"mice uterus EECs; mouse, in vivo",rough and mitotic
same,fatty deposition in liver cells (H&E staining sections),"mouse liver; mouse, in vivo",high fatty deposition in liver cells
C#C[C@@]1(OC(=O)CC)C[C@@H]2CC[C@@H]3[C@H](CC[C@@]4(C)[C@H]3CC[C@]4(C#C)OC(=O)CC)[C@@]2(C)C1 [anordrin],elimination of tamoxifen-induced endometrial epithelial cell (EEC) mitosis,[6],can eliminate tamoxifen-induced endometrial epithelial cell (EEC) mitosis
"C#C[C@]1(OC(=O)CC)C[C@@H]2CC[C@@H]3[C@H](CC[C@@]4(C)[C@H]3CC[C@]4(C#C)OC(=O)CC)[C@@]2(C)C1 [β-anordrin, (2β,17α)-diethynyl-(2α,17β)-diol-dipropionate-A-nor-5α-androstane, reference compound]",inhibition of anastrozole-induced osteoporosis (micro-CT),mice bone,not β-anordrin inhibited anastrozole-induced osteoporosis
same,prevention of osteoporosis (micro-CT),OVX female mice [1],not 3-anordrin prevented osteoporosis
same,inhibition of tamoxifen-induced EEC mitosis,mice uterus EECs; [8],not β-anordrin inhibited tamoxifen-induced EEC mitosis
same,inhibition of tamoxifen-induced NASH,mouse liver; [8],not β-anordrin inhibited
same,"inhibition of anastrozole-induced vagina atrophy (vagina wet mass, H&E sections)",mouse vagina,not β-anordrin inhibited anastrozole-induced vagina atrophy
same,amount of liver TG (liver H&E section and statistical analysis),OVX female mice [4],not β-anordrin decreased the amount of liver TG
same,prevention of vulvovagina atrophy (uterus and vagina wet mass and H&E staining),OVX female mice [5],not β-anordrin prevented vulvovagina atrophy
